Laboratory results published in patent US8361968B2 (Takeda Pharmaceutical Company Limited, priority 2002, dated 2013).
Square brackets hold non-standard residues; d marks the D form. Ends that are not written are not given here. Peptide text beside a SMILES is read from it. * marks the point of attachment. Acetyl(2-(4-imidazolyl)) = O=C(Cc1c[nH]cn1)*; Phe(4-F) = N[C@@H](Cc1ccc(F)cc1)C(=O)O; 2Nal = N[C@@H](Cc1ccc2ccccc2c1)C(=O)O; Arg(Me) = CNC(=N)NCCC[C@H](N)C(=O)O; 4Pal = N[C@@H](Cc1ccncc1)C(=O)O; d3Pal = N[C@H](Cc1cccnc1)C(=O)O; azaGly = NNC(=O)O

Each compound was assayed against hOT7T175 (Homo sapiens, UniProt Q969F8, L364H) (assay: Intracellular Ca ion level-increasing activity using FLIPR in hOT7T175/CHO). Conditions: relative, Metastin (1-54) = 1.
Chain of hOT7T175 (Q969F8 whole entry L364H): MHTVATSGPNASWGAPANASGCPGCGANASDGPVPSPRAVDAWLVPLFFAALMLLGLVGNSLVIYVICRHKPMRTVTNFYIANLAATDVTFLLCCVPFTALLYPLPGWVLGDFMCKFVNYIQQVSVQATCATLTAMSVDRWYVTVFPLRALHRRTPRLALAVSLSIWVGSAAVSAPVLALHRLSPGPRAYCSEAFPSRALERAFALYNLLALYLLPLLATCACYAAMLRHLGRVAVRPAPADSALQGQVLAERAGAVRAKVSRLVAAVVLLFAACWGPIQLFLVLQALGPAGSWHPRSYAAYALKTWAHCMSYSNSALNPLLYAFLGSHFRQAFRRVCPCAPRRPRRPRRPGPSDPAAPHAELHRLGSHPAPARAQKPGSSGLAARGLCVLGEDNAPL
Assay type: cell-based
Design: expressed in transfected cells; host or cells: CHO/dhfr- cells, obtained from ATCC
Description: Assay for Intracellular Ca Ion Level-Increasing Activity Using Flipr
In accordance with the method described in JPA 2000-312590, the intracellular Ca ion level-increasing activity was measured using FLIPR.
The stable expression cell line hOT7T175 was acquired by transduction of expression plasmid pAK-rOT175 for animal cells into CHO/dhff cells, using CellPhect Transfection Kit (Amersham Pharmacia Biotech, Inc.). First, 240 μL of Buffer A (attached to CellPhect Transfection Kit) was added to 9.6 μg of plasmid DNA dissolved in 240 μl of distilled water, followed by stirring. After settling the mixture for 10 minutes, 480 μL of Buffer B (attached to CellPhect Transfection Kit) was added to the mixture, which was vigorously stirred to form DNA-containing liposomes. Then, 4×10^5 CHO/dhff cells (obtained from ATCC) were inoculated on a 60 mm Petri dish. […] After culturing the cells at 37° C. for 6 hours in 5% carbon dioxide gas, the cells were washed twice with serum-free Ham's F-12 medium and 3 ml of 15% glycerol was added to the cells in the Petri dish to treat for 2 minutes. The cells were again washed twice with serum-free Ham's F-12 medium followed by incubation in Ham's F-12 medium supplemented with 10% fetal bovine serum at 37° C. for 15 hours in 5% carbon dioxide gas. The cells were dispersed by trypsin treatment and recovered from the Petri dish. The recovered cells were inoculated on a 6-well plate in 1.25×10^4 cells/well and incubation was initiated at 37° C. in Dulbecco's modified Eagle medium (DMEM) medium (Nissui Seiyaku Co., Ltd.) containing 10% dialyzed fetal bovine serum (JRH BIOSCIENCES, Inc.) under 5% carbon dioxide gas. […] The medium was exchanged on Days 1 and 2 to remove the cells died.
The intracellular Ca ion level-increasing activity of the synthetic peptide in hOT7T175/CHO was determined using FLIPR (Molecular Devices, Inc.).
hOT7T175/CHO was subcultured in DMEM supplemented with 10% dialyzed fetal bovine serum (hereinafter abbreviated as dFBS) and provided for the experiment (hereinafter abbreviated as 10% dFBS/DMEM). The hOT7T175/CHO was suspended in 10% dFBS-DMEM in 15×10^4 cells/ml. The suspension was inoculated on a 96-well plate for FLIPR (Black Plate Clear Bottom, Coster, Inc.) at 200 μL each (3.0×10^4 cells/200 μL/well), followed by incubation at 37° C. overnight in a 5% CO2 incubator (hereinafter simply referred to as the cell plate). Then, 21 ml of HANKS/HBSS (9.8 g of HANKS, 0.35 g of sodium hydrogencarbonate, 20 ml of 1M HEPES; after adjusting the pH to 7.4 with 1N sodium hydroxide, the mixture was sterilized by filtration), 210 μl of 250 mM Probenecid and […] of fetal bovine serum (FBS) were mixed (HANKS/HBSS-Probenecid-FBS).
Furthermore, 2 vials of Fluo3-AM (50 μug/vial) were dissolved in 21 μL of dimethylsulfoxide and 21 μL of 20% Pluronic acid. The resulting solution was added to and mixed with 10 ml of HANKS/HBSS-Probenecid-FBS described above. After the culture medium was removed, the mixture was dispensed onto the cell plate in 100 μL each/well, followed by incubation at 37° C. for an hour in a 5% CO2 incubator (pigment loading). The peptide was dissolved in dimethylsulfoxide in 1×10^−3 M. The peptide solution was diluted with HANKS/HBSS containing 2.5 mM Probenecid, 0.2% BSA and 0.1% CHAPS.

Specific Activity (intracellular Ca ion level-increasing activity)	Compound
1	CNC(=N)NCCC[C@H](NC(=O)[C@H](CC(C)C)NC(=O)NNC(=O)[C@H](Cc1ccccc1)NC(=O)[C@H](CO)NC(=O)[C@H](CC(N)=O)NC(=O)[C@H](Cc1ccccc1)NC(=O)[C@H](N)Cc1cccnc1)C(=O)N[C@@H](Cc1ccccc1)C(N)=O [Compound No. 256, D-Pya(3)-Phe-Asn-Ser-Phe-AzaGly-Leu-Arg(Me)-Phe-NH2] (H-[d3Pal]FNSF[azaGly]L[Arg(Me)]F-NH2)
10	CNC(=N)NCCC[C@H](NC(=O)[C@H](CC(C)C)NC(=O)CNC(=O)[C@H](Cc1ccccc1)NC(=O)[C@H](CO)NC(=O)[C@H](CC(N)=O)NC(=O)[C@H](Cc1c[nH]c2ccccc12)NC(=O)[C@@H](NC(=O)[C@H](N)Cc1ccc(O)cc1)[C@@H](C)O)C(=O)N[C@@H](Cc1ccccc1)C(N)=O [Compound No. 215] (H-[dY]TWNSFGL[Arg(Me)]F-NH2; N-terminus assumed)
10	CNC(=N)NCCC[C@H](NC(=O)[C@H](CC(C)C)NC(=O)CNC(=O)[C@H](Cc1ccccc1)NC(=O)[C@H](C)NC(=O)[C@H](CC(N)=O)NC(=O)[C@H](Cc1c[nH]c2ccccc12)NC(=O)[C@H](CC(N)=O)NC(=O)[C@H](N)Cc1ccc(O)cc1)C(=O)N[C@@H](Cc1ccccc1)C(N)=O [Compound No. 212] (H-[dY]NWNAFGL[Arg(Me)]F-NH2)
20	CNC(=N)NCCC[C@H](NC(=O)[C@H](CC(C)C)NC(=O)CNC(=O)[C@H](Cc1ccccc1)NC(=O)[C@H](CO)NC(=O)[C@H](CC(N)=O)NC(=O)[C@H](Cc1c[nH]c2ccccc12)NC(=O)[C@H](N)Cc1ccc(O)cc1)C(=O)N[C@@H](Cc1ccccc1)C(N)=O [Compound No. 217] (H-[dY]WNSFGL[Arg(Me)]F-NH2)
7	3-Pyridylpropionyl-Asn-Ser-Phe-AzaGly-Leu-Arg(Me)-Trp-NH2 [Compound No. 386]
2	CNC(=N)NCCC[C@H](NC(=O)[C@H](CC(C)C)NC(=O)CNC(=O)[C@H](Cc1ccccc1)NC(=O)[C@H](CO)NC(=O)[C@H](CC(N)=O)NC(=O)[C@H](C)NC(=O)[C@H](CC(N)=O)NC(=O)[C@H](N)Cc1ccc(O)cc1)C(=O)N[C@@H](Cc1ccccc1)C(N)=O [Compound No. 169] (H-[dY]NANSFGL[Arg(Me)]F-NH2)
1	CNC(=N)NCCC[C@H](NC(=O)[C@H](CC(C)C)NC(=O)NNC(=O)[C@H](Cc1ccccc1)NC(=O)[C@H](CO)NC(=O)[C@H](CC(N)=O)NC(=O)[C@H](Cc1ccc2ccccc2c1)NC(=O)[C@H](N)Cc1ccc(O)cc1)C(=O)N[C@@H](Cc1ccccc1)C(N)=O [Compound No. 255, D-Tyr-Nal(2)-Asn-Ser-Phe-AzaGly-Leu-Arg(Me)-Phe-NH2] (H-[dY][2Nal]NSF[azaGly]L[Arg(Me)]F-NH2)
1	CNC(=N)NCCC[C@H](NC(=O)[C@H](CC(C)C)NC(=O)NNC(=O)[C@H](Cc1ccccc1)NC(=O)[C@H](CO)NC(=O)[C@H](CC(N)=O)NC(=O)[C@H](Cc1ccncc1)NC(=O)[C@@H](CC(N)=O)NC(=O)[C@H](N)Cc1ccc(O)cc1)C(=O)N[C@@H](Cc1ccc(F)cc1)C(N)=O [Compound No. 317, D-Tyr-D-Asn-Pya(4)-Asn-Ser-Phe-AzaGly-Leu-Arg(Me)-Phe(4F)-NH2] (H-[dY][dN][4Pal]NSF[azaGly]L[Arg(Me)][Phe(4-F)]-NH2)
5	CNC(=N)NCCC[C@H](NC(=O)[C@H](CC(C)C)NC(=O)[C@H](C)NC(=O)[C@H](Cc1ccccc1)NC(=O)[C@H](CO)NC(=O)[C@H](CC(N)=O)NC(=O)[C@H](Cc1c[nH]c2ccccc12)NC(=O)[C@H](CC(N)=O)NC(=O)[C@H](N)Cc1ccc(O)cc1)C(=O)N[C@@H](Cc1ccccc1)C(N)=O [Compound No. 204] (H-[dY]NWNSFAL[Arg(Me)]F-NH2)
2	CNC(=N)NCCC[C@H](NC(=O)[C@H](CC(C)C)NC(=O)NNC(=O)[C@H](Cc1ccccc1)NC(=O)[C@H](CO)NC(=O)[C@H](CC(N)=O)NC(=O)[C@H](Cc1ccc2ccccc2c1)NC(=O)[C@H](CC(N)=O)NC(=O)[C@H](N)Cc1ccc(O)cc1)C(=O)N[C@@H](Cc1ccccc1)C(N)=O [Compound No. 246, D-Tyr-Asn-Nal(2)-Asn-Ser-Phe-AzaGly-Leu-Arg(Me)-Phe-NH2] (H-[dY]N[2Nal]NSF[azaGly]L[Arg(Me)]F-NH2)
1	CNC(=N)NCCC[C@H](NC(=O)[C@H](CC(C)C)NC(=O)NNC(=O)[C@H](Cc1ccccc1)NC(=O)[C@H](CO)NC(=O)[C@H](CC(N)=O)NC(=O)[C@H](Cc1ccccc1)NC(=O)[C@H](CC(N)=O)NC(=O)[C@H](N)Cc1ccc(O)cc1)C(=O)N[C@@H](Cc1ccccc1)C(N)=O [Compound No. 244, D-Tyr-Asn-Phe-Asn-Ser-Phe-AzaGly-Leu-Arg(Me)-Phe-NH2] (H-[dY]NFNSF[azaGly]L[Arg(Me)]F-NH2; N-terminus assumed)
2	CNC(=N)NCCC[C@H](NC(=O)[C@H](CC(C)C)NC(=O)NNC(=O)[C@H](Cc1ccccc1)NC(=O)[C@H](CO)NC(=O)[C@H](CC(N)=O)NC(=O)[C@H](Cc1c[nH]c2ccccc12)NC(=O)[C@H](CC(N)=O)NC(=O)[C@H](N)Cc1cccnc1)C(=O)N[C@@H](Cc1ccccc1)C(N)=O [Compound No. 258, D-Pya(3)-Asn-Trp-Asn-Ser-Phe-AzaGly-Leu-Arg(Me)-Phe-NH2] (H-[d3Pal]NWNSF[azaGly]L[Arg(Me)]F-NH2)
1	CNC(=N)NCCC[C@H](NC(=O)[C@H](CC(C)C)NC(=O)NNC(=O)[C@H](Cc1ccccc1)NC(=O)[C@H](CO)NC(=O)[C@H](CC(N)=O)NC(=O)[C@H](Cc1c[nH]c2ccccc12)NC(=O)[C@H](CC(N)=O)NC(=O)[C@@H](C)N)C(=O)N[C@@H](Cc1ccccc1)C(N)=O [Compound No. 259, D-Ala-Asn-Trp-Asn-Ser-Phe-AzaGly-Leu-Arg(Me)-Phe-NH2] (H-[dA]NWNSF[azaGly]L[Arg(Me)]F-NH2)
10	CNC(=N)NCCC[C@H](NC(=O)[C@H](CC(C)C)NC(=O)CNC(=O)[C@H](Cc1ccccc1)NC(=O)[C@H](CO)NC(=O)[C@H](CC(N)=O)NC(=O)[C@H](Cc1c[nH]c2ccccc12)NC(=O)[C@H](CCC(N)=O)NC(=O)[C@H](N)Cc1ccc(O)cc1)C(=O)N[C@@H](Cc1ccccc1)C(N)=O [Compound No. 214] (H-[dY]QWNSFGL[Arg(Me)]F-NH2)

Compound	Specific Activity (intracellular Ca ion level-increasing activity)
CNC(=N)NCCC[C@H](NC(=O)[C@H](CC(C)C)NC(=O)NNC(=O)[C@H](Cc1ccccc1)NC(=O)[C@H](CO)NC(=O)[C@H](CC(N)=O)NC(=O)Cc1c[nH]cn1)C(=O)N[C@@H](Cc1ccccc1)C(N)=O [Compound No. 323, 4-Imidazoleacetyl-Asn-Ser-Phe-AzaGly-Leu-Arg(Me)-Phe-NH2] ({Acetyl(2-(4-imidazolyl))}-NSF[azaGly]L[Arg(Me)]F-NH2)	1
D-Tyr-Asn-Trp-Gln-Ser-Phe-Gly-Leu-Arg(Me)-Phe-NH2 ([dY]NWQSFGL[Arg(Me)]F-NH2; N-terminus assumed; SMILES CNC(=N)NCCC[C@H](NC(=O)[C@H](CC(C)C)NC(=O)CNC(=O)[C@H](Cc1ccccc1)NC(=O)[C@H](CO)NC(=O)[C@H](CCC(N)=O)NC(=O)[C@H](Cc1c[nH]c2ccccc12)NC(=O)[C@H](CC(N)=O)NC(=O)[C@H](N)Cc1ccc(O)cc1)C(=O)N[C@@H](Cc1ccccc1)C(N)=O) [Compound No. 209]	½
